A word on the IC50: it is the midpoint of a concentration-inhibition curve. A word on the solubility: it is the dissolved amount per volume that the medium holds. A higher solubility goes with a readily soluble substance.

Values after ≈ are worked out from the molar mass of the structure shown. Like-named read-outs stand apart in the source and are kept apart here.

Results on 28 compounds are retold here after patent US6136847A, “Water-soluble trioxanes as potent and safe antimalarial agents” (Johns Hopkins University, priority 1999, dated 2000).

One series deals with Plasmodium falciparum. Briefly: In vitro antimalarial assay (Plasmodium falciparum). The format is cell-based. Conditions: for IC50: Plasmodium falciparum. The procedure:
(§1) The protozoan Plasmodium falciparum is a causative agent of malaria, the single most critical infectious disease of mankind. The in vitro antimalarial activity of the C3 -substituted trioxanes was determined according to the method described in Posner et al. (13). The in vivo antimalarial activity was determined as described in Peters et al. (14).
Tables 1 and 2 present a tabulation of a number of compounds which have been synthesized along with the IC50 (in nM).

In a further series the test system is rats. The settings on record: high doses; cited from earlier work.
Series [1] relates to mouse neuroblastoma cells. Conditions: cited from earlier work.
In the next series the test system is P. berghei. Briefly: In vivo antimalarial assay, mice infected with P. berghei malaria. The settings on record: Plasmodium berghei. The protocol:
as §1

Another series deals with erythrocytes. Briefly: Hemolysis of erythrocytes on daily IV administration to rats for 14 days. The format is in vivo, rat. Conditions: daily for 14 days, artelinic acid even at a dose four-fold less than MHP-34a. The source says:
4. They are nontoxic in therapeutic dose range.

Series [2] in a line: Water solubility in pH 7.4 aqueous solution. The format is physicochemical.
Setting [3] is: C3-Aryl C12-Methoxy Trioxanes, Expansion data (quadruplicate measurements), read-out: Antimalarial Activity, IC50 (Table 1).
Setting [4] is: C3-Substituted C12-Methoxy Trioxanes, Expansion data (quadruplicate measurements), read-out: Antimalarial Activity, IC50 (Table 2).
The mark [5] stands for this setting: in vitro, read-out: In vitro antimalarial assay: IC50.
The mark [6] stands for this setting: IV, mice infected with P. berghei, read-out: ED90, IV administration.

Regarding `CCOC(=O)Cn1cccc1[C@@H]1O[C@@H]2O[C@@]3(C)CC[C@H]4[C@H](C)CC[C@@H]([C@H]1C)[C@@]24OO3` [MHP-84, 10a-(1'-(Ethoxycarbonylmethyl)pyrrol-2'-yl)-10-deoxoartemisinin], the IC50 with Plasmodium falciparum (printed as In vivo, read-out: In vitro antimalarial assay: IC50) is 9.1 nM.

In the case of `CO[C@H]1O[C@@]2(c3ccc(F)cc3C)CC[C@H]3CCCC[C@]31OO2` (relative stereo) [10b], in the series on Plasmodium falciparum (setting [3]), the IC50 was found to be 34 nM.

For the compound `CO[C@H]1O[C@@]2(c3ccc(F)cc3)CC[C@H]3CCCC[C@]31OO2` (relative stereo) [9b], the IC50 in the series on Plasmodium falciparum (setting [3]) stood at 30 nM.

Turning to `CO[C@H]1O[C@@]2(CF)CC[C@H]3CCCC[C@]31OO2` (relative stereo) [118b], the half-maximal inhibitory concentration (IC50) in the series on Plasmodium falciparum (setting [4]) stood at 160 nM.

Turning to `CO[C@H]1O[C@@H]2O[C@@]3(C)CC[C@H]4[C@H](C)CC[C@@H]([C@H]1C)[C@@]24OO3` [artemether], the neurotoxicity in rats result in the series on rats is on record as “neurotoxicity has been seen”.

As for `CO[C@H]1O[C@@]2(c3ccc(CO)cc3)CC[C@H]3CCCC[C@]31OO2` (relative stereo) [12b], the IC50 with Plasmodium falciparum (setting [3]) was 15 nM.

With `CO[C@H]1O[C@@]2(c3ccccc3)CC[C@H]3CCCC[C@]31OO2` (relative stereo) [16b], the IC50 in the series on Plasmodium falciparum (setting [3]) turned out to be 38 nM.

With `C[C@H]1[C@@H](O)O[C@@H]2O[C@@]3(C)CC[C@H]4[C@H](C)CC[C@@H]1[C@@]24OO3` [dihydroartemesisin, Dihydroartemisinin], the “neurotoxicity in mouse neuroblastoma cells” value in series [1] is reported as “neurotoxicity has been seen”.

For `C[C@@H]1CC[C@H]2[C@@H](C)C(=O)O[C@@H]3O[C@@]4(C)CC[C@@H]1[C@]32OO4` [Artemisinin, artemisinin, reference compound], the IC50 with Plasmodium falciparum (setting [5]) came to 10 nM.

Turning to `CO[C@@H]1O[C@@]2(c3ccco3)CC[C@H]3CCCC[C@]31OO2` (relative stereo) [compound 13], the IC50 with Plasmodium falciparum (setting [3]) is 600 nM.

With `CO[C@@H]1O[C@@]2(c3ccc(C(=O)O)cc3)CC[C@H]3CCCC[C@]31OO2` (relative stereo) [MHP-34a, 3-(4'-Carboxyphenyl)-12α-methoxy Trioxane], the IC50 with Plasmodium falciparum (setting [5]) was determined as 1020 nM. Besides, the ED50 came out at 9.5 mg/kg in the series with P. berghei (po, read-out: In vivo antimalarial assay: ED50, oral) and 19.5 mg/kg in the series on P. berghei (sc, read-out: In vivo antimalarial assay: ED50, subcutaneous). In addition, the ED90 in the series with P. berghei (sc, read-out: In vivo antimalarial assay: ED90, subcutaneous) was 92 mg/kg/day; in the series with P. berghei (setting [6]), 60 mg/kg/day; in the series with P. berghei (oral, mice infected with P. berghei, read-out: In vivo antimalarial assay: ED90, oral), 46 mg/kg/day. In the series with erythrocytes, the hemolysis of erythrocytes entry is “no hemolysis of erythrocytes”. Also, the solubility in series [2] is ~90 mM (≈ 30.1 mg/mL).

Consider `O=C(O)c1ccc(CO[C@H]2O[C@@]3(c4ccc(F)cc4)CC[C@H]4CCCC[C@]42OO3)cc1` (relative stereo) [(p-Carboxy)benzyloxy Trioxane (β)-7a], for which the IC50 in the series on Plasmodium falciparum (setting [5]) came out at 40 nM.

Turning to `CO[C@@H]1O[C@@]2(c3ccc(F)cc3)CC[C@H]3CCCC[C@]31OO2` (relative stereo) [9a], the IC50 in the series on Plasmodium falciparum (setting [3]) amounted to 65 nM.

For `CO[C@H]1O[C@@]2(c3ccc(C(=O)O)cc3)CC[C@H]3CCCC[C@]31OO2` (relative stereo) [MHP-34b, 3-(4'-Carboxyphenyl)-12β-methoxy Trioxane], in the series on Plasmodium falciparum (setting [5]), the IC50 is 150 nM. In addition, the ED90 with P. berghei (setting [6]) was 60 mg/kg/day. Besides, the solubility in series [2] is ~60 mM (≈ 20.1 mg/mL).

Turning to `C[C@H]1[C@H](c2cccn2CC(=O)O)O[C@@H]2O[C@@]3(C)CC[C@H]4[C@H](C)CC[C@@H]1[C@@]24OO3` [MHP-153, 10a-(1'-(Carboxymethyl)pyrrol-2'-yl)-10-deoxoartemisinin], the IC50 in the series on Plasmodium falciparum (setting [5]) was 36 nM.

Turning to `COc1ccc(C23CCC4CCCCC4(OO2)C(OC)O3)cc1` (stereo not drawn) [compound 11], in the series on Plasmodium falciparum (setting [3]), the IC50 was > 2500 nM.

As to `COC1OC2(CCC(C)C)CCC3CCCCC31OO2` (stereo not drawn) [C3 -(CH3)2 CHCH2 CH2 analog], the “potency increased by a factor of, over the C3 methyl analog” value with Plasmodium falciparum (relative to C3 methyl analog) is 5.

`CO[C@H]1O[C@@]2(c3ccc(C(F)(F)F)cc3)CC[C@H]3CCCC[C@]31OO2` (relative stereo) [120b]: the IC50 in the series with Plasmodium falciparum (setting [4]) worked out at 53 nM.

Consider `CO[C@@H]1O[C@@]2(c3ccc(C(F)(F)F)cc3)CC[C@H]3CCCC[C@]31OO2` (relative stereo) [120a], for which, in the series on Plasmodium falciparum (setting [4]), the IC50 stood at 39 nM.

`C[C@H]1[C@@H](OCc2ccc(C(=O)O)cc2)O[C@@H]2O[C@@]3(C)CC[C@H]4[C@H](C)CC[C@@H]1[C@@]24OO3` [artelinic acid, Artelinic acid, reference compound]: the ED50 in the series on P. berghei (oral, mice infected with P. berghei, comparator, read-out: SD50, oral) stood at 56 mg/kg. Further, in the series on erythrocytes, the hemolysis of erythrocytes entry was “time-dependent hemolysis”. Besides, the solubility in series [2] was ~2 mM (≈ 0.837 mg/mL).

As for `CO[C@H]1O[C@@]2(c3ccc(-c4ccccc4)cc3)CC[C@H]3CCCC[C@]31OO2` (relative stereo) [8b], in the series on Plasmodium falciparum (setting [3]), the half-inhibitory concentration (IC50) was 68 nM.

As to `CO[C@@H]1O[C@@]2(c3ccccc3)CC[C@H]3CCCC[C@]31OO2` (relative stereo) [16a], the IC50 in the series on Plasmodium falciparum (setting [3]) was determined as 100 nM.

Consider `CO[C@@H]1O[C@@]2(c3ccc(-c4ccccc4)cc3)CC[C@H]3CCCC[C@]31OO2` (relative stereo) [8a], for which the IC50 with Plasmodium falciparum (setting [3]) amounted to 76 nM.

As to `CO[C@@H]1O[C@@]2(c3ccc(F)cc3C)CC[C@H]3CCCC[C@]31OO2` (relative stereo) [10a], the IC50 in the series with Plasmodium falciparum (setting [3]) was 99 nM.

In the case of `CO[C@@H]1O[C@@]2(c3ccc(CO)cc3)CC[C@H]3CCCC[C@]31OO2` (relative stereo) [12a], in the series on Plasmodium falciparum (setting [3]), the concentration for half-maximal inhibition (IC50) stood at 78 nM.

For the compound `O=C(O)c1ccc(CO[C@@H]2O[C@@]3(c4ccc(F)cc4)CC[C@H]4CCCC[C@]42OO3)cc1` (relative stereo) [(p-Carboxy)benzyloxy Trioxane (α)-7a], in the series on Plasmodium falciparum (setting [5]), the IC50 was determined as 47 nM.

Regarding `CO[C@@H]1O[C@@]2(CF)CC[C@H]3CCCC[C@]31OO2` (relative stereo) [118a], in the series with Plasmodium falciparum (setting [4]), the IC50 worked out at 320 nM.

For the compound `C[C@H]1[C@H](C(=O)O)O[C@@H]2O[C@@]3(C)CC[C@H]4[C@H](C)CC[C@@H]1[C@@]24OO3` [MHP-108, 10α-Carboxy-10-deoxoartemisinin], the IC50 in the series on Plasmodium falciparum (setting [5]) was 570 nM.
